The target in one experiment is T1, Rat M4 (Rattus norvegicus, UniProt P08485).
T1 construct: expressed in transfected cells; host or cells: CHO-K1 (ATCC), stably expressing M4 and Gqi5
T1 sequence (P08485 1-478): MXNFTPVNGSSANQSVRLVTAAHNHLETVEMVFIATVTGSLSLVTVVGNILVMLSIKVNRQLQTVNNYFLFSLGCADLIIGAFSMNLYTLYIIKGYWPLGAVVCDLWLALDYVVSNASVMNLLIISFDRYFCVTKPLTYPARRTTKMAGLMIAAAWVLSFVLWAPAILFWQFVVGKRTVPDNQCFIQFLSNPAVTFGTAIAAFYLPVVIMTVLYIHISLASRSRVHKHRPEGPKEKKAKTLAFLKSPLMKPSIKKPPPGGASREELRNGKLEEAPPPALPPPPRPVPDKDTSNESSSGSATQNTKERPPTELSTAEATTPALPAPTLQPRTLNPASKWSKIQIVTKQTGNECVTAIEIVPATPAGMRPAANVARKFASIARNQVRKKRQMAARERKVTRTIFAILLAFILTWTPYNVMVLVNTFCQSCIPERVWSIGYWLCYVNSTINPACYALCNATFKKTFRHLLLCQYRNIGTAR
The experiment is described as follows: mAChR M4 cell-based functional calcium flux assay (rat M4/Gqi5/CHO cells). To be noted: for Emin (rat M4): % ACh maximum at 30 μM. The method, boiled down:
(§1)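 CHO-K1 cells stably co-expressing M4 of the given species with chimeric Gqi5 were loaded with Fluo-4 AM and read for calcium flux. Compounds (10-point, 1:3 dilutions) were added first, followed by an acetylcholine EC20 at 143 s and an EC80 at 268 s. IC50 reflects the concentration-dependent fall in the EC80 response, fitted with a four-parameter logistic.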
(In general: A change in cytosolic calcium serves as a functional read-out for many receptors and channels.)

The target in a further experiment is T2, Human M4 (Homo sapiens, UniProt P08173).
T2 construct: expressed in transfected cells; host or cells: CHO-K1 (ATCC), stably expressing M4 and Gqi5
T2 sequence (P08173 1-479): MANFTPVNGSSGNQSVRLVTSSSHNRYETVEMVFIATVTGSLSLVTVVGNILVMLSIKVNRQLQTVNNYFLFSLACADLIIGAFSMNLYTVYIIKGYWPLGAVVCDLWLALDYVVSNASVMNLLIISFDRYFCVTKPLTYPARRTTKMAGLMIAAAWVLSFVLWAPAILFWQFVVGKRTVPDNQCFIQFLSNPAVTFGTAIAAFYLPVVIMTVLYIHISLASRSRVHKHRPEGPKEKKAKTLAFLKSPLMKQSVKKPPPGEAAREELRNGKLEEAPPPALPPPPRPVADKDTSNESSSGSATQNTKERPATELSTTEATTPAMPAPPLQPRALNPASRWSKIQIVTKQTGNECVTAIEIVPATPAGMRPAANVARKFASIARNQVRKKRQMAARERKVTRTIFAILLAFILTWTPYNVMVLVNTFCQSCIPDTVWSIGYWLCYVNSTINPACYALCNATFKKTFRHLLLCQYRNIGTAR
Kind of experiment: mAChR M4 cell-based functional calcium flux assay (human M4/Gqi5/CHO cells). To be noted: for Emin (human M4): % ACh maximum at 30 μM; for IC50: decrease of the response to an EC80 concentration of acetylcholine. The method in brief:
as §1

Where [1] appears, read: decrease of the response to an EC80 concentration of acetylcholine.

For orientation: IC50 means the concentration that gives 50% inhibition. Take `CC(=O)Nc1ccc(-c2nnc(NCC3CC34CCN(CCC(C)(C)C)CC4)c(C)c2C)cc1` (centres unmarked) [Compound 116, N-[4-[6-[[6-(3,3-dimethylbutyl)-6-azaspiro[2.5]octan-2-yl]methylamino]-4,5-dimethyl-pyridazin-3-yl]phenyl]acetamide]: on Rat M4, the “Emin (rat M4)” value amounted to 4%. Further, the half-maximal inhibitory concentration (IC50) at Rat M4 (setting [1]) is 0.015 µM. In addition, on Human M4, the “Emin (human M4)” value is given as 5% and the IC50 came out at 11.9 nM.

Consider `CC(CN1CCC2(CC1)CC2CNc1ccc(-c2cc(F)ccc2Cl)nn1)C(C)(C)C` (centres unmarked) [Compound 12, 6-(2-chloro-5-fluoro-phenyl)-N-[[6-(2,3,3-trimethylbutyl)-6-azaspiro[2.5]octan-2-yl]methyl]pyridazin-3-amine], for which the “Emin (rat M4)” value at Rat M4 turned out to be 2.40%. The concentration for half-maximal inhibition (IC50) at Rat M4 (setting [1]) was 0.22 µM. On Human M4, the “Emin (human M4)” value was 2.15% and the half-maximal inhibitory concentration (IC50) amounted to 39.3 nM.

In the case of `CC(=O)Nc1ccc(-c2ccc(NC[C@@H]3CC34CCN(Cc3ncccc3C)CC4)nn2)cc1` [Compound 122, N-[4-[6-[[(2R)-6-[(3-methyl-2-pyridyl)methyl]-6-azaspiro[2.5]octan-2-yl]methylamino]pyridazin-3-yl]phenyl]acetamide], at Rat M4, the “Emin (rat M4)” value is on record as 12%. Further, at Rat M4 (setting [1]), the IC50 worked out at 0.32 µM. Further, at Human M4, the “Emin (human M4)” value was 12% and the half-inhibitory concentration (IC50) is 1410 nM.

In the case of `Fc1ccc(Cl)c(-c2ccc(NC[C@@H]3CC34CCN(CC3CCCCCC3)CC4)nn2)c1` [Compound 109, (R)-6-(2-chloro-5-fluorophenyl)-N-((6-(cycloheptylmethyl)-6-azaspiro[2.5]octan-1-yl)methyl)pyridazin-3-amine], on Rat M4, the “Emin (rat M4)” value was determined as 3%. Besides, the IC50 on Rat M4 (setting [1]) came to 0.0921 µM. Further, at Human M4, the “Emin (human M4)” value amounted to 4% and the IC50 was found to be 50.6 nM.

On to `Cc1nn(C)cc1-c1cnc(NCC2CC23CCN(CC(C)C(C)(C)C)CC3)cn1` (centres unmarked) [Compound 22, 5-(1,3-dimethylpyrazol-4-yl)-N-[[6-(2,3,3-trimethylbutyl)-6-azaspiro[2.5]octan-2-yl]methyl]pyrazin-2-amine], for which the “Emin (rat M4)” value on Rat M4 was 4.67%. In addition, the IC50 is 0.404 µM on Rat M4 (setting [1]) and 169 nM at Human M4. Moreover, the “Emin (human M4)” value on Human M4 is 3.25%.

Take `Fc1ccc(Cl)c(-c2ccc(NC[C@@H]3CC34CCN(CC3CC5CCC3O5)CC4)nn2)c1` (stereo partly drawn) [Compound 110, N-(((1R)-6-((7-oxabicyclo[2.2.1]heptan-2-yl)methyl)-6-azaspiro[2.5]octan-1-yl)methyl)-6-(2-chloro-5-fluorophenyl)pyridazin-3-amine]: on Rat M4, the “Emin (rat M4)” value is on record as 4%. Besides, the half-maximal inhibitory concentration (IC50) on Rat M4 (setting [1]) was 0.0392 µM. In addition, at Human M4, the “Emin (human M4)” value worked out at 3% and the IC50 amounted to 2.29 nM.

Take `CC(C)(C)CCN1CCC2(CC1)CC2CNc1ccc(-c2cc(F)ccc2Cl)nn1` (centres unmarked) [Compound 13, 6-(2-chloro-5-fluoro-phenyl)-N-[[6-(3,3-dimethylbutyl)-6-azaspiro[2.5]octan-2-yl]methyl]pyridazin-3-amine]: the “Emin (rat M4)” value at Rat M4 amounted to 2.82%. In addition, the IC50 on Rat M4 (setting [1]) came to 0.117 µM. Also, on Human M4, the “Emin (human M4)” value turned out to be 2.29% and the half-inhibitory concentration (IC50) stood at 15.6 nM.

Consider `Cc1nn(C)cc1-c1ccc(NCC2CC23CCN(Cc2ncccc2C(F)(F)F)CC3)nn1` (centres unmarked) [Compound 63, 6-(1,3-dimethylpyrazol-4-yl)-N-[[6-[[3-(trifluoromethyl)-2-pyridyl]methyl]-6-azaspiro[2.5]octan-2-yl]methyl]pyridazin-3-amine], for which the “Emin (rat M4)” value on Rat M4 stood at 19.9%. Moreover, the half-inhibitory concentration (IC50) is greater than 10 µM at Rat M4 (cells printed in μM, decrease of the EC80 acetylcholine response) and 537 nM at Human M4. Also, the “Emin (human M4)” value on Human M4 turned out to be 4.53%.

Regarding `Fc1ccc(Cl)c(-c2ccc(NCC3CC34CCN(CC35CC6CC(CC(C6)C3)C5)CC4)nn2)c1` (centres unmarked) [Compound 16, N-[[6-(1-adamantylmethyl)-6-azaspiro[2.5]octan-2-yl]methyl]-6-(2-chloro-5-fluoro-phenyl)pyridazin-3-amine], the “Emin (rat M4)” value on Rat M4 amounted to 3.13%. In addition, on Rat M4 (setting [1]), the half-maximal inhibitory concentration (IC50) was 0.496 µM. Further, on Human M4, the “Emin (human M4)” value is on record as 2.44% and the half-inhibitory concentration (IC50) is 94.1 nM.

As to `Cc1ccsc1-c1ccc(NCC2CC23CCN(CCC(C)(C)C)CC3)nn1` (centres unmarked) [Compound 42, N-[[6-(3,3-dimethylbutyl)-6-azaspiro[2.5]octan-2-yl]methyl]-6-(3-methyl-2-thienyl)pyridazin-3-amine], on Rat M4, the “Emin (rat M4)” value is 2.94%. Further, the IC50 at Rat M4 (setting [1]) worked out at 0.0497 µM. For the same compound, on Human M4, the “Emin (human M4)” value is on record as 2.88% and the 50% inhibitory concentration (IC50) is 11.2 nM.

`CC(C)(C)CCN1CCC2(CC1)C[C@H]2CNc1ccc(-c2cc(F)ccc2Cl)nn1` [Compound 64, (R)-6-(2-chloro-5-fluoro-phenyl)-N-[[6-(3,3-dimethylbutyl)-6-azaspiro[2.5]octan-2-yl]methyl]pyridazin-3-amine]: the “Emin (rat M4)” value at Rat M4 was 3.68%. The IC50 at Rat M4 (setting [1]) stood at 0.0332 µM. For the same compound, at Human M4, the “Emin (human M4)” value came to 2.90% and the IC50 came to 11 nM.

On to `CC(C)(C)CCN1CCC2(CC1)CC2CNc1ccc(-c2ccc3ncccc3c2)nn1` (centres unmarked) [Compound 45, N-[[6-(3,3-dimethylbutyl)-6-azaspiro[2.5]octan-2-yl]methyl]-6-(6-quinolyl)pyridazin-3-amine], for which, on Rat M4, the “Emin (rat M4)” value is listed as 3.33%. Also, the IC50 on Rat M4 (setting [1]) is 0.0539 µM. On Human M4, the “Emin (human M4)” value stood at 2.89% and the IC50 worked out at 9.08 nM.

In the case of `CC(C)(C)CCN1CCC2(CC1)CC2CNc1ccc(-c2ccccc2F)nn1` (centres unmarked) [Compound 26, N-[[6-(3,3-dimethylbutyl)-6-azaspiro[2.5]octan-2-yl]methyl]-6-(2-fluorophenyl)pyridazin-3-amine], on Rat M4, the “Emin (rat M4)” value is 3.40%. Besides, the IC50 on Rat M4 (setting [1]) was found to be 0.192 µM. At Human M4, the “Emin (human M4)” value is reported as 2.98% and the IC50 came to 13.3 nM.

`CC(=O)Nc1ccc(-c2ccc(NC[C@@H]3CC34CCN(CCC(C)(C)C)CC4)nn2)cc1` [Compound 111, N-[4-[6-[[(2R)-6-(3,3-dimethylbutyl)-6-azaspiro[2.5]octan-2-yl]methylamino]pyridazin-3-yl]phenyl]acetamide]: the “Emin (rat M4)” value on Rat M4 was determined as 4%. Also, the 50% inhibitory concentration (IC50) at Rat M4 (setting [1]) turned out to be 0.00753 µM. For the same compound, at Human M4, the “Emin (human M4)” value is 6% and the half-maximal inhibitory concentration (IC50) was 2.04 nM.
